The values that follow are results of earlier work, collected in paper PMC5102340 (Advanced functional materials, 2016).

Each structure is given as a SMILES string. Where two headings read alike, the source gives them in different places.

As to `Oc1ccccc1O` [Catechol], the pKa1 entry is recorded as “≈ 9.4” and the pKa2 result is on record as “≈ 13.7”. In addition, the pKa1 (listed as catechol) is recorded as 9.4.
